These are literature values, as cited in patent US11167013B2, “Sucrose acetate isobutyrate-based compositions, methods and uses thereof” (ASSOCIATION FOR THE ADVANCEMENT OF TISSUE ENGINEERING CELL …, priority 2017, dated 2021).

For series [1] the following is noted: neat SAIB.
The conditions of series [2]: as food additive.

With Sucrose acetate isobutyrate [SAIB], in series [1], the viscosity entry was “over 100 Pa·s”. Further, the allowable daily intake in series [2] is 20 mg·kg/day.
